# Source: paper PMC10715191, “Exploration of the novel fluoroquinolones with high inhibitory effect against quinolone-resistant DNA gyrase of Salmonella Typhimurium” (Microbiology Spectrum, 2023)
# Legend:
# [1] = system: S. Typhimurium NBRC 13245; assay: microbe, parasite or virus in culture; assay type: cell-based, Salmonella Typhimurium; conditions: micro-broth dilution, 37°C, 16 h; for MIC: Salmonella enterica, read-out: MIC ± SD, S. Typhimurium
# Experimental: (§1) A suspension containing approximately 5 × 10^5 CFU/mL of each Salmonella strain was transferred into 96-well plate containing serially diluted fluoroquinolones and incubated at 37°C for 16 h.
# [2] = biological target: T1, Ser83Tyr mutant S. Typhimurium DNA gyrase (Salmonella typhimurium, UniProt P0A2I3+P37411, S83Y); assay: Fluoroquinolone-inhibited DNA supercoiling assay, GyrA Ser83Tyr DNA gyrase; assay type: biochemical; conditions: read-out: IC50s ± SD, Ser83Tyr (converted)
# T1 construct: made in house; host or cells: Escherichia coli BL21(DE3)
# Source text: (§2) Recombinant DNA gyrase was obtained as separate subunits, GyrA and GyrB. In total, plasmids encoding nine subunits including WT GyrA and GyrB as well as seven GyrA with amino acid substitutions (Ser83Phe, Ser83Ile, Ser83Tyr, Asp87Gly, Asp87Asn, Asp87Tyr, and […]) in the quinolone resistance determining region were constructed as described in our previous study ([38]). These plasmids were introduced into Escherichia coli BL21(DE3) (Merck KGaA, Darmstadt, Germany), and protein expression was induced in the bacterial cells. A transformed E. coli was inoculated into Luria-Bertani broth supplemented with ampicillin (50 mg/L) and incubated at 37°C until the optical density value reached 0.60. Expression of GyrA and GyrB was induced by adding 1 mM isopropyl beta-D-1-thiogalactopyranoside (Wako Pure Chemical Industries Ltd, Osaka, Japan) followed by incubation at 16°C for 40 h (for GyrA), or 18°C for 13 h (for GyrB). To release the expressed protein, E. coli cells were harvested by centrifugation, suspended in a native binding buffer containing complete mini EDTA-free (Roche Applied Science, Mannheim, Germany), and then sonicated at a 30% duty cycle with 10 cycles of 40 s on and 40 s off (Sonifier 250; Branson, Danbury, CT). The recombinant DNA gyrase subunits were purified by column chromatography using Ni-NTA agarose resin (Thermo Fisher Scientific, Inc., Waltham, MA) and dialyzed against DNA gyrase dilution buffer [50 mM Tris-HCl, pH 7.5; 100 mM KCl, 2 mM dithiothreitol (DTT), 1 mM EDTA]. […] The protein purity was assessed by sodium dodecyl sulfate-polyacrylamide gel electrophoresis (SDS-PAGE) (ATTO, Tokyo, Japan) as shown in Fig. 7.
# (§3) The reaction mixture was incubated at 37°C for 60 min and then the reaction was halted by adding 8 µL of stop solution (5% SDS, 25% glycerol, and 0.25 mg/mL of bromophenol blue) ([45]). […] The amount of supercoiled DNA was quantified by its intensity using ImageJ, the digital image processing software (https://imagej.nih.gov/ij/download.html).
# S. Enteritidis NBRC 3313 = assay: microbe, parasite or virus in culture; assay type: cell-based, Salmonella Enteritidis; conditions: micro-broth dilution, 37°C, 16 h; for MIC: Salmonella enterica, read-out: MIC ± SD, S. Enteritidis
# Experimental: as §1
# [3] = biological target: T2, Asp87Gly mutant S. Typhimurium DNA gyrase (Salmonella typhimurium, UniProt P0A2I3+P37411, D87G); assay: Fluoroquinolone-inhibited DNA supercoiling assay, GyrA Asp87Gly DNA gyrase; assay type: biochemical
# T2 construct: made in house; host or cells: Escherichia coli BL21(DE3)
# Source text: as §2, §3
# [4] = biological target: T3, Asp87Asn mutant S. Typhimurium DNA gyrase (Salmonella typhimurium, UniProt P0A2I3+P37411, D87N); assay: Fluoroquinolone-inhibited DNA supercoiling assay, GyrA Asp87Asn DNA gyrase; assay type: biochemical; conditions: read-out: IC50s ± SD, Ap87Asn (converted)
# T3 construct: made in house; host or cells: Escherichia coli BL21(DE3)
# Source text: as §2, §3
# [5] = biological target: T4, WT S. Typhimurium DNA gyrase (Salmonella typhimurium, UniProt P0A2I3+P37411); assay: Fluoroquinolone-inhibited DNA supercoiling assay, WT DNA gyrase; assay type: biochemical; conditions: read-out: IC50s ± SD, WT (converted)
# T4 construct: made in house; host or cells: Escherichia coli BL21(DE3)
# Source text: as §2, §3
# [6] = biological target: T5, Ser83Ile mutant S. Typhimurium DNA gyrase (Salmonella typhimurium, UniProt P0A2I3+P37411, S83I); assay: Fluoroquinolone-inhibited DNA supercoiling assay, GyrA Ser83Ile DNA gyrase; assay type: biochemical; conditions: read-out: IC50s ± SD, Ser83Ile (converted)
# T5 construct: made in house; host or cells: Escherichia coli BL21(DE3)
# Source text: as §2, §3
# [7] = biological target: T6, Asp87Tyr mutant S. Typhimurium DNA gyrase (Salmonella typhimurium, UniProt P0A2I3+P37411, D87Y); assay: Fluoroquinolone-inhibited DNA supercoiling assay, GyrA Asp87Tyr DNA gyrase; assay type: biochemical
# T6 construct: made in house; host or cells: Escherichia coli BL21(DE3)
# Source text: as §2, §3
# [8] = biological target: T7, Ser83Phe-Asp87Asn double-mutant S. Typhimurium DNA gyrase (Salmonella typhimurium, UniProt P0A2I3+P37411, D87N/S83F); assay: Fluoroquinolone-inhibited DNA supercoiling assay, GyrA Ser83Phe-Asp87Asn DNA gyrase; assay type: biochemical; conditions: for IC50 against double-mutant DNA gyrase relative to WT: ratio IC50 double mutant / WT; for IC50: supercoiling assay, GyrA double mutant Ser83Phe-Asp87Asn, read-out: IC50s ± SD, Ser83Phe-Asp87Asn (converted)
# T7 construct: made in house; host or cells: Escherichia coli BL21(DE3)
# Source text: Recombinant DNA gyrase was obtained as separate subunits, GyrA and GyrB. In total, plasmids encoding nine subunits including WT GyrA and GyrB as well as seven GyrA with amino acid substitutions (Ser83Phe, Ser83Ile, Ser83Tyr, Asp87Gly, Asp87Asn, Asp87Tyr, and […]) in the quinolone resistance determining region were constructed as described in our previous study ([38]). These plasmids were introduced into Escherichia coli BL21(DE3) (Merck KGaA, Darmstadt, Germany), and protein expression was induced in the bacterial cells. A transformed E. coli was inoculated into Luria-Bertani broth supplemented with ampicillin (50 mg/L) and incubated at 37°C until the optical density value reached 0.60. Expression of GyrA and GyrB was induced by adding 1 mM isopropyl beta-D-1-thiogalactopyranoside (Wako Pure Chemical Industries Ltd, Osaka, Japan) followed by incubation at 16°C for 40 h (for GyrA), or 18°C for 13 h (for GyrB). To release the expressed protein, E. coli cells were harvested by centrifugation, suspended in a native binding buffer containing complete mini EDTA-free (Roche Applied Science, Mannheim, Germany), and then sonicated at a 30% duty cycle with 10 cycles of 40 s on and 40 s off (Sonifier 250; Branson, Danbury, CT). The recombinant DNA gyrase subunits were purified by column chromatography using Ni-NTA agarose resin (Thermo Fisher Scientific, Inc., Waltham, MA) and dialyzed against DNA gyrase dilution buffer [50 mM Tris-HCl, pH 7.5; 100 mM KCl, 2 mM dithiothreitol (DTT), 1 mM EDTA]. The obtained protein was mixed with glycerol to prevent denaturation and stored in small aliquots at −80°C for future use. The protein purity was assessed by sodium dodecyl sulfate-polyacrylamide gel electrophoresis (SDS-PAGE) (ATTO, Tokyo, Japan) as shown in Fig. 7.
# The reaction mixture was incubated at 37°C for 60 min and then the reaction was halted by adding 8 µL of stop solution (5% SDS, 25% glycerol, and 0.25 mg/mL of bromophenol blue) ([45]). Next, 10 µL of each reaction mixture was subjected to gel electrophoresis for 80 min at 50 mA in 1.2% agarose gel in 1×Tris-acetate-EDTA (TAE) buffer. Subsequently, the gel was stained with 0.5 µg/mL of ethidium bromide for 30 min. The presence of supercoiled DNA can be easily distinguished as a separated band under the UV light. The amount of supercoiled DNA was quantified by its intensity using ImageJ, the digital image processing software (https://imagej.nih.gov/ij/download.html).
# [9] = biological target: T8, Ser83Phe mutant S. Typhimurium DNA gyrase (Salmonella typhimurium, UniProt P0A2I3+P37411, S83F); assay: Fluoroquinolone-inhibited DNA supercoiling assay, GyrA Ser83Phe DNA gyrase; assay type: biochemical; conditions: read-out: IC50s ± SD, Ser83Phe (converted)
# T8 construct: made in house; host or cells: Escherichia coli BL21(DE3)
# Source text: as §2, §3
# [10] = biological target: T4, WT S. Typhimurium DNA gyrase; assay: Fluoroquinolone-mediated DNA cleavage assay, WT DNA gyrase; assay type: biochemical
# Source text: as §2, with “CT).” for “CT). The recombinant DNA gyrase subunits were purified by column chromatography using Ni-NTA agarose resin (Thermo Fisher Scientific, Inc., Waltham, MA) and dialyzed against DNA gyrase dilution buffer [50 mM Tris-HCl, pH 7.5; 100 mM KCl, 2 mM dithiothreitol (DTT), 1 mM EDTA].”, “7. […]” for “7.”
# [11] = biological target: T9, GryA-Ser83Ile S. Typhimurium DNA gyrase (Salmonella typhimurium, UniProt P0A2I3+P37411, S83I); assay: Fluoroquinolone-mediated DNA cleavage assay, GyrA Ser83Ile DNA gyrase; assay type: biochemical
# T9 construct: made in house; host or cells: Escherichia coli BL21(DE3)
# Source text: as §2, with “CT).” for “CT). The recombinant DNA gyrase subunits were purified by column chromatography using Ni-NTA agarose resin (Thermo Fisher Scientific, Inc., Waltham, MA) and dialyzed against DNA gyrase dilution buffer [50 mM Tris-HCl, pH 7.5; 100 mM KCl, 2 mM dithiothreitol (DTT), 1 mM EDTA].”, “7. […]” for “7.”
# T2 sequence (P37411 whole entry D87G, one chain of several): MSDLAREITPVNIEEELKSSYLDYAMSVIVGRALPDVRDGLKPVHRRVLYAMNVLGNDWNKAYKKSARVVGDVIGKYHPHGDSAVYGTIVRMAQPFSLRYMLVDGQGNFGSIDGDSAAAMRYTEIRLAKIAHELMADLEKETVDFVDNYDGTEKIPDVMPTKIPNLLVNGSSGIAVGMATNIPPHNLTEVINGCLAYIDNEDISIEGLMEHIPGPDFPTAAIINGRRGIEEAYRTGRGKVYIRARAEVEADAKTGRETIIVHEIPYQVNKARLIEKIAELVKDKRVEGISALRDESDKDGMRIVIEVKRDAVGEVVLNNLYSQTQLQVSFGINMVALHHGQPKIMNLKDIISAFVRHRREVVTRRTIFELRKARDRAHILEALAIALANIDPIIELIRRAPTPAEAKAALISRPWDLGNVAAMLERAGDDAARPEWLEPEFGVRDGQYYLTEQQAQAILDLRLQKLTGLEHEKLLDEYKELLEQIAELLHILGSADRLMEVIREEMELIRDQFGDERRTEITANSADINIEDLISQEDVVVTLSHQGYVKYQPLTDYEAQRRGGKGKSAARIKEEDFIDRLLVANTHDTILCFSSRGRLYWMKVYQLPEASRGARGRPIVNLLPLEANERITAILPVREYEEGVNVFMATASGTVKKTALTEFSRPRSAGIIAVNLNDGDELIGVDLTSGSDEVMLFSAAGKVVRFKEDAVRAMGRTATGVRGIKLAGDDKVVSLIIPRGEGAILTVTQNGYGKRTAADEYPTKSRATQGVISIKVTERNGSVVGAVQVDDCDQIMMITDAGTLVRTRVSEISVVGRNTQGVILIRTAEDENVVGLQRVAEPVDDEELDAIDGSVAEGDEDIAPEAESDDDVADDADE
# T3 sequence (P37411 whole entry D87N, one chain of several): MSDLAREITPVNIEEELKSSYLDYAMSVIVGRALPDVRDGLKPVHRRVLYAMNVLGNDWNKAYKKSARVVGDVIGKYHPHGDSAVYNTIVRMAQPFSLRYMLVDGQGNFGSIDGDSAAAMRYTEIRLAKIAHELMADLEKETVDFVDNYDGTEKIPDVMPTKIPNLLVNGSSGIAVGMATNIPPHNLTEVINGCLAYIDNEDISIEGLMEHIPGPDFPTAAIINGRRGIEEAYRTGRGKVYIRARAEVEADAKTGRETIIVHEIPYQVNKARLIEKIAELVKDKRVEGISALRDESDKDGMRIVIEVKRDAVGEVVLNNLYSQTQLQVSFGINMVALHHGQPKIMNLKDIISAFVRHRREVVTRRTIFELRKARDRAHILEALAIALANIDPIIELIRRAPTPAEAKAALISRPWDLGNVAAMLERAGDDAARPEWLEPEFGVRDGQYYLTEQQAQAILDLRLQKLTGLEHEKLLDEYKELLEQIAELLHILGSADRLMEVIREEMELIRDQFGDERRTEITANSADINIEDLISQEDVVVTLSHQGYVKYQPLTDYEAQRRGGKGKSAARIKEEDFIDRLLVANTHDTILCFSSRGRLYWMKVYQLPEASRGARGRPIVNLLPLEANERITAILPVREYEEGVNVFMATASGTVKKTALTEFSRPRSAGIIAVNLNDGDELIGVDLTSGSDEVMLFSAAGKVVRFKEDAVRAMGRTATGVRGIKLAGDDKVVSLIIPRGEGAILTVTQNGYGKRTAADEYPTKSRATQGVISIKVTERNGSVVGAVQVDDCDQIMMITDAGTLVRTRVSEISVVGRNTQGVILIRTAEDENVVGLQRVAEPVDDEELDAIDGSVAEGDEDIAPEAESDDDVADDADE
# T6 sequence (P37411 whole entry D87Y, one chain of several): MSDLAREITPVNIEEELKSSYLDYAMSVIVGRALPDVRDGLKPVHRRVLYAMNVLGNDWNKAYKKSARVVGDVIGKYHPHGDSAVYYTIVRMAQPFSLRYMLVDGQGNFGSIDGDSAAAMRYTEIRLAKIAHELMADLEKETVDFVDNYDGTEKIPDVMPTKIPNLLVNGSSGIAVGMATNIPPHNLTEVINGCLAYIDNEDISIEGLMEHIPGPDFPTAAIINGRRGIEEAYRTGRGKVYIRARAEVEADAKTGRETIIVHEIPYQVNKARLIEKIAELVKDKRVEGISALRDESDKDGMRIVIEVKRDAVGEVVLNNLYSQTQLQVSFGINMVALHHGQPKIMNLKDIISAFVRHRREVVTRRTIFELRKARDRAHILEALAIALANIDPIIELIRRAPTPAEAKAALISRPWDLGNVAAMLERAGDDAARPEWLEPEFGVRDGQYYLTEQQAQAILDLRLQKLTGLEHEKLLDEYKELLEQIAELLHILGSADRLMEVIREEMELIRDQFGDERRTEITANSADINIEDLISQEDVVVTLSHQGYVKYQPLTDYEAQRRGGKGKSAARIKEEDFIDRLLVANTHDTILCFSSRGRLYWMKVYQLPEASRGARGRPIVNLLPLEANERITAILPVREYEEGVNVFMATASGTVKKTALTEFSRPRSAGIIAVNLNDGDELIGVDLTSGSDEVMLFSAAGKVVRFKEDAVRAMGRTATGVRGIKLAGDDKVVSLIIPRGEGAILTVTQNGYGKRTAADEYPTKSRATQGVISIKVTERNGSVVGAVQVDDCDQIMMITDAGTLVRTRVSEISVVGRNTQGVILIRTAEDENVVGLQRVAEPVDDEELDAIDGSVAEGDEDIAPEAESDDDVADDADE
# T7 sequence (P37411 whole entry S83F/D87N, one chain of several): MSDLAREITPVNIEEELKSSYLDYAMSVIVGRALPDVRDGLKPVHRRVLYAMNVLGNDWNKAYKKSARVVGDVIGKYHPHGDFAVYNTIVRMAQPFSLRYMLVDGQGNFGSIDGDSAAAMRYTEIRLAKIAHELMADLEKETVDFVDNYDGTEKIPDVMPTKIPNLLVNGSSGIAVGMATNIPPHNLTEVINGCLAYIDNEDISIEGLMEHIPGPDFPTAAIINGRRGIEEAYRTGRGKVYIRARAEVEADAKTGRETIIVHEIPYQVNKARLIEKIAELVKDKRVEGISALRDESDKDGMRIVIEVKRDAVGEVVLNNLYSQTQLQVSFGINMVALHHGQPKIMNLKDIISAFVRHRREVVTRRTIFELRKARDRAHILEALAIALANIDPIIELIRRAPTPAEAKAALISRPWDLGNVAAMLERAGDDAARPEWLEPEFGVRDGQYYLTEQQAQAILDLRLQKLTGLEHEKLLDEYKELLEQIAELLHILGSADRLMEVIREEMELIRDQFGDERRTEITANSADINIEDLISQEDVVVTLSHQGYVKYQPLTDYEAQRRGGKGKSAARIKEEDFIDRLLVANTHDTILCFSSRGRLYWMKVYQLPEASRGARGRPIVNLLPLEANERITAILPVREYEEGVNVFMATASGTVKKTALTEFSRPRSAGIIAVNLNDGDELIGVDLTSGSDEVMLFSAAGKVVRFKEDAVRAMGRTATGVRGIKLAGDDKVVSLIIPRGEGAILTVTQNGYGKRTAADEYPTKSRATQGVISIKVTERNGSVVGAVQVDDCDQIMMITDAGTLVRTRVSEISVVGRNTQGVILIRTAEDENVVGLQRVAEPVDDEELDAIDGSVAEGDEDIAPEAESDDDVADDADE
# T1 sequence (P37411 whole entry S83Y, one chain of several): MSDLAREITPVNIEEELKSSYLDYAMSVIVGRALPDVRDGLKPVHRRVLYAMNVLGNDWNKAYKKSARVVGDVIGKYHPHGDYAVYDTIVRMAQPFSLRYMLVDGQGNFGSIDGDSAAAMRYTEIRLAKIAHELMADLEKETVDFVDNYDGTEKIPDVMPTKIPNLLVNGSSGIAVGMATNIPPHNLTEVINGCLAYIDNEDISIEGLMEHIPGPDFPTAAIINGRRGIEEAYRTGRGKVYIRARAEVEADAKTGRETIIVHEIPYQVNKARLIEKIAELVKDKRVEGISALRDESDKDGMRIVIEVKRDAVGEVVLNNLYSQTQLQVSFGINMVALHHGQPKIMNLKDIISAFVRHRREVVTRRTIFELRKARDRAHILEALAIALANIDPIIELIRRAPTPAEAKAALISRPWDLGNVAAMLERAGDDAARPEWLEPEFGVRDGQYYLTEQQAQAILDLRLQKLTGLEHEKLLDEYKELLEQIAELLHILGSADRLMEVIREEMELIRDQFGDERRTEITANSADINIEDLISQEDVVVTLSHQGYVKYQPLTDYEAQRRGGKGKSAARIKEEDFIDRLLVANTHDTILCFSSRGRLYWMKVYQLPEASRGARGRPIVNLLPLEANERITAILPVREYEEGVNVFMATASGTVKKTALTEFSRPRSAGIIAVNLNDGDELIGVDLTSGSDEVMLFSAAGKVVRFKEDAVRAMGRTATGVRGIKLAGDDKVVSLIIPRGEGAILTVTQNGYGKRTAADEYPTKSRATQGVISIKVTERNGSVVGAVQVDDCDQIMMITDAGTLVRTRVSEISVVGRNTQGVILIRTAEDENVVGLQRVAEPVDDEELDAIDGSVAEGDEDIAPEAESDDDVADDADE
smiles,measurement,setting,value
Cc1c(N2CC(NC(C)C)C2)c(F)cc2c(=O)c(C(=O)O)cn(-c3nc(N)c(F)cc3F)c12 [WQ-3810],MIC,[1],0.04 µg/mL
same,"MIC ± SD, S. Typhimurium",[1],0.04 µg/mL
same,IC50,[2],897 nM
same,MIC,S. Enteritidis NBRC 3313,0.04 µg/mL
same,"MIC ± SD, S. Enteritidis",S. Enteritidis NBRC 3313,0.04 µg/mL
same,IC50,[3],69.3 nM
same,IC50,[4],1290 nM
same,IC50,[5],71.5 nM
same,IC50,[6],2510 nM
same,IC50,[7],71.5 nM
same,IC50 against double-mutant DNA gyrase relative to WT,[8],110 fold
same,IC50,[8],7910 nM
same,IC50,[9],113 nM
Cc1c(N2CC(O)C2)c(F)cc2c(=O)c(C(=O)O)cn(-c3nc(N)c(F)cc3F)c12 [WQ-3154],MIC,[1],0.08 µg/mL
same,"MIC ± SD, S. Typhimurium",[1],0.08 µg/mL
same,IC50,[2],592 nM
same,MIC,S. Enteritidis NBRC 3313,0.08 µg/mL
same,"MIC ± SD, S. Enteritidis",S. Enteritidis NBRC 3313,0.08 µg/mL
same,IC50,[3],83.3 nM
same,IC50,[4],2080 nM
same,IC50,[5],61.9 nM
same,IC50,[6],2750 nM
same,IC50,[7],80.9 nM
same,IC50 against double-mutant DNA gyrase relative to WT,[8],70 fold
same,IC50,[8],4310 nM
same,IC50,[9],71.4 nM
Nc1nc(-n2cc(C(=O)O)c(=O)c3cc(F)c(N4CC(O)C4)c(Cl)c32)c(F)cc1F [WQ-3034],MIC,[1],0.08 µg/mL
same,"MIC ± SD, S. Typhimurium",[1],0.08 µg/mL
same,IC50,[2],495 nM
same,MIC,S. Enteritidis NBRC 3313,0.016 µg/mL
same,"MIC ± SD, S. Enteritidis",S. Enteritidis NBRC 3313,0.16 µg/mL
same,IC50,[3],54.5 nM
same,"CC25s, WT (concentration that induces 25% of maximum DNA cleavage)",[10],0.16 µg/mL
same,IC50,[4],1020 nM
same,"CC25s, Ser83Ile (concentration that induces 25% of maximum DNA cleavage)",[11],0.58 µg/mL
same,IC50,[5],45.4 nM
same,IC50,[6],1910 nM
same,IC50,[7],68.1 nM
same,IC50 against double-mutant DNA gyrase relative to WT,[8],59 fold
same,IC50,[8],2680 nM
same,IC50,[9],59 nM
